{"source": "patent US20120301895A1", "about": "“METHODS OF MODULATING BINDING OF SON OF SEVENLESS TO PHOSPHATIDIC ACID AND IDENTIFYING COMPOUNDS THAT MODULATE SUCH BINDING” (THE RESEARCH FOUNDATION OF STATE UNIVERSITY OF NEW YORK, priority 2007, published 2012)", "key": {"Ras": {"test_system": "Ras", "experiment": "Ras activation pull-down assay in Cos1 cells transfected with HA-tagged Ras and Sos", "type": "cell-based", "procedure": "In FIG. 14A, MDA-MB-231 cells were plated and then placed in media containing 0.5% media 24 hr later. 24 hr later, the cells were treated with either DMSO or honokiol (20 μM) as indicated for 2 hr. At this point the cells were harvested and lysates were prepared and treated with the immobilized Ras binding domain of Raf1 as in FIGS. 12A-C. Ras-GTP bound to the Raf1 binding domain was recovered and subjected to Western blot analysis using the Pan-Ras antibody. Total Ras in the cell lysates and actin levels were also examined by Western blot analysis. In FIG. 14B, MDA-MB-231 cells were plated and 24 hr later were shifted to media containing 0.5% serum. The cells were then treated with EGF (200 ng/ml) for 10 min. The cells were also treated with honokiol (20 μM) prior to the addition of EGF for the times indicated. The levels of GTP-bound Ras, total Ras, and actin were then determined as in FIG. 14A. In FIG. 14C, Cos1 cells were transfected with plasmids expressing HA-tagged Ras (50 ng) and Sos (500 ng) for 24 hours. The cells were placed in serum free media overnight in the presence of increasing concentration of honokiol. Cells were then collected and Ras activation was determined using the pull-down assay as above. Levels of Ras-GTP, Sos, and Ras were determined by Western blot analysis using an antibody that recognized HA. In FIG. 14D, Cos1 cells were tranfected with the plasmid expressing HA-tagged Ras (50 ng) for 24 hours. […] Cells were then stimulated with 100 ng/ml EGF for the indicated times (min) and Ras activation was determined as in FIG. 14A. […] Cells were then stimulated with 100 ng/ml EGF for the indicated times (min) and Ras activation was determined as in FIG. 14A. […]\nTo further establish that honokiol was suppressing Ras activation, the effect in Cos1 cells was examined where background Ras activation was lower. […] 24 hr later, the cells were then shifted to serum-free conditions in the presence of increasing concentrations of honokiol and the levels of Ras, Sos, and GTP-bound Ras was evaluated. […]"}, "786-0 cells": {"test_system": "786-0 cells", "experiment": "Apoptosis in 786-O cells", "type": "cell-based, human", "description": "Cell viability was determined by trypan blue exclusion. After various treatments, cells were harvested, washed, and treated with trypan blue at a concentration of 0.4% w/v. After 10 min, trypan blue uptake (dead cells) was determined by counting on a hemocytometer. […] The effect of honokiol on cell viability and cleavage of the caspase 3 substrate poly-(ADP-ribose) polymerase (“PARP”)—an indicator of apoptotic cell death—was examined in the MDA-MB-231 and 786-0 cells. The effect of honokiol on cell viability and PARP cleavage in 0.5% serum was examined after 4 hr and 24 hr honokiol treatment and in 10% serum after 24 hr honokiol treatment in the MDA-MB-231 cells."}}}
{"compound": "C=CCc1ccc(O)c(-c2ccc(O)c(CC=C)c2)c1", "note": "[honokiol, Honokiol]", "values": [{"measurement": "Ras-GTP levels", "setting": "Ras; Cos1 cells with excess Sos, serum free overnight, at concentrations of 20 μM and higher", "result": "strongly suppressed"}, {"measurement": "ability of EGF to increase the level of GTP-bound Ras", "setting": "Ras; Cos1 cells, endogenous Sos, ectopic Ras, honokiol 50 μM, EGF 100 ng/ml", "result": "suppressed"}, {"measurement": "effect on EGF-induced Ras activation when ectopically expressed Sos was introduced", "setting": "Ras; Cos1 cells, honokiol 50 μM, EGF 100 ng/ml", "result": "more pronounced"}, {"measurement": "apoptosis", "setting": "786-0 cells", "result": "induced apoptosis"}]}
